“And” between values parts separate entries of the source, which are not always exact repeats. Identical values can stand only once.
Legend:
[1] = Physicochemical testing of DHEA-S dihydrate before and after micronization; details: for Water (% w/w): Karl Fischer
Description: Surface area is determined using five point BET analyses are performed with nitrogen as the adsorbing gas (P/Po=0.05 to 0.30) using a Micromeritics TriStar surface area analyzer. Particle size distributions are measured by laser diffraction using a Micromeritics Saturn Digisizer where the particles are suspended in mineral oil with sodium dioctyl sodium sulfosuccinate as a dispersing agent. Drug substance water content is measured by Karl Fischer titration (Schott Titroline KF). Pure water is used as the standard and all relative standard deviations for triplicates are less than 1%. Powder is added directly to the titration media.

[2] = Solid-state stability neat and with lactose at 50° C. (DHEA formed, HPLC); format: physicochemical
Text: These conditions were used to stress the formulation in order to predict its long-term stability results. […] The primary degradant is DHEA. […] The materials on accelerated storage become more cohesive with time as evidenced by clumping during sample weighing for chemical analysis. […] This is a considerable disadvantage since lactose is the most commonly used inhalation excipient for dry powder formulations. Continuing with the virtually anhydrous form would mean limiting formulations to neat powder or undertaking more comprehensive safety studies to use a novel excipient.

[3] = tested on: HT-29 SF cells; test: DHEA effect on cell cycle, flow cytometry; format: cell-based, human; details: 25, 50, 200 μM; 24-72 hours
Description: Cells were plated at 10^5/60-mm dish in duplicate. […] Cultures were trypsinized following 0, 24, 48, or 74 hours and fixed and stained using a modification of a procedure of Bauer et al., Cancer Res. 46, 3173-3178 (1986). Briefly, cells were collected by centrifugation and resuspended in cold phosphate-buffered saline. Cells were fixed in 70% ethanol, washed, and resuspended in phosphate-buffered saline.
After 24, 48, and 72 hours, cells were harvested, fixed in ethanol, and stained with propidium iodide, and the DNA content/cell was determined by flow cytometric analysis. The percentage of cells in G1, S, and G2M phases was calculated using the Cellfit cell cycle analysis program. S phase is marked by a quadrangle for clarity. Representative histograms from duplicate determinations are shown. The experiment was repeated three times.

[4] = Solubility of DHEA-S as a function of NaCl and temperature; format: physicochemical; details: 20 mM Na^+; Ksp 1316 mM^2; 15° C.
Text: Inhalation of pure water can produce a cough stimulus. […] The temperature effect is weaker at high NaCl concentrations.

[5] = Short-term solution stability of DHEA-S formulation; format: physicochemical; details: for Appearance on storage: 10 mg/mL in 0.12% NaCl
Description: Aliquots of this solution are filled into clear glass vials and stored at RT (24-26° C.) and at 40° C. The samples are checked daily for DHEA-S content, DHEA content, and appearance. For each time point, duplicate samples are withdrawn and diluted from each vial. […] The study is stopped on day three. […] The solution should easily be stable for the day of reconstitution in a clinical trial. The following section describes the aerosol properties of this formulation.

[6] = tested on: rat peritoneal mast cells; test: Mast cell degranulation (histamine secretion) after compound 48/80; format: cell-based
Text: Leukotrienes are synthesized within—although not exclusively by the mast cell (Gilchrist, M., McCauley, S.D., & Befus, A. D. (2004) Expression, localization, and regulation of NOS in human mast cell lines: effects on leukotriene production. Blood 104, 462-469.). We determined whether DHEA-sulfate would reduce mast cell degranulation after stimulation with compound 48/80 in rat peritoneal mast cells. Mast cell degranulation was quantified by measurement of histamine, another substance contained within the secretory granules of mast cells. The simple measurement of released histamine is used as a convenient surrogate marker for the release of leukotrienes.
Freshly isolated rat peritoneal mast cells (2×10^5 cells) were pre-incubated for 5 min at 37° C. in a Balanced Salt Solution containing 150 mM NaCl (pH 7.4), 2.7 mM KCl, 0.9 mM CaCl2, 4 mM Na2HPO4, 2.7 mM KH2PO4, 1.75 mg/ml BSA and 0.1 μg/ml compound 48/80. Thereafter, DHEAS or water (control) are added and the mixture is incubated for 2 min at 37° C.
Following incubation, the mixture is cooled to 4° C. then centrifuged at 4500 rpm for 5 min. […]
The amount of secreted histamine is quantified by measuring the fluorescence intensity at λex=360 nm and λem=450 nm using a spectrofluorimeter (GeminiXS, Molecular Devices). The results are expressed as a percent inhibition of control histamine secretion.

[7] = cited from earlier work
[8] = Particle size by Malvern Mastersizer X / light microscope after jet milling or spray drying; format: physicochemical
Description: Approximately 1 g sample was passed through the jet mill, once, and approximately 2 g sample were passed through the jet mill twice. […] The resulting solution was sonicated for 3 minutes and appeared fully dispersed. The dispersed solutions were tested on a Malvern Mastersizer X with a small volume sampler (SVS) attachment. One sample of dispersed material was tested 5 times. The median particle size or D (v, 0.5) of unmilled material was 52.56 μm and the % RSD (relative standard deviation) was 7.61 for the 5 values. The D (v, 0.5) for a single pass through the jet mill was 3.90 μm and the % RSD was 1.27, and the D (v, 0.5) from a double pass through the jet mill 3.25 μm and the % RSD was 3.10.
The solution was spray-dried with a B-191 Mini Spray-Drier (Buchi, Flawil, Switzerland) with an inlet temperature of 55° C., outlet temperature of 40° C., at 100% aspirator, at 10% pump, nitrogen flow at 40 mbar and spray flow at 600 units. The spray-dried product was suspended in hexane and Span85 surfactant added to reduce agglomeration. The dispersions were sonicated with cooling for 3-5 minutes for complete dispersion and the dispersed solutions tested on a Malvern Mastersizer X with a Small Volume Sampler (SVS) attachment. […] Visual examination by light microscope of the dispersions of each batch confirmed that spray drying produced small respirable size particles. The mean particle size was 2.4 μm and 2.0 μm for each batch, respectively.

[9] = tested on: Intracellular adenosine; test: In vivo effect on adenosine levels in rat tissues
Description: Folinic acid (50 mg/kg) was administered intraperitoneally once daily for fourteen days. […] Hearts were removed from animals and flash frozen in liquid nitrogen with 10 s of death. Liver and lungs were removed en bloc and flash frozen with 30 s of death. Brain tissue was subsequently dissected.

Structure (SMILES): C[C@]12CC[C@H](OS(=O)(=O)[O-])CC1=CC[C@@H]1[C@@H]2CC[C@]2(C)C(=O)CC[C@@H]12.O.O.[Na+] [DHEA-S•dihydrate]
- Particle size (D50%) ([1]; Bulk): 31 microns
- Water (% w/w) ([1]; Bulk): 8.5 % w/w
- Particle size (D50%) ([1]; Micronized): 3.7 microns
- Water (% w/w) ([1]; Micronized): 8.4 % w/w
- Surface area (m^2/g) ([1]; Micronized, five point BET): 4.9 m^2/g
- Percent DHEA formed ([2]; DHEA-S dihydrate, 50° C., 1 week): 0.216%
- Percent DHEA formed ([2]; DHEA-S dihydrate, 50° C., 3 weeks): 0.317%
- Percent DHEA formed ([2]; DHEA-S dihydrate, 50° C., 4 weeks): 0.374%
- water content, starting value ([2]; before storage): 8.8%
- Percent DHEA formed ([2]; dihydrate, Control, neat, sealed, 25° C., 4 weeks): 0.218%
- Percent DHEA formed ([2]; dihydrate, Control, neat, sealed, 25° C., Time (Weeks)): 0.213%
- water content after accelerated storage ([2]; one week at 50° C.): 8.66%

Structure (SMILES): C[C@]12CC[C@H](O)CC1=CC[C@@H]1[C@@H]2CC[C@]2(C)C(=O)CC[C@@H]12 [DHEA, 3β-hydroxyandrost-5-en-17-one]
- Effect on cell cycle distribution [3]: G1 block

Structure (SMILES): C[C@]12CC[C@H](OS(=O)(=O)[O-])CC1=CC[C@@H]1[C@@H]2CC[C@]2(C)C(=O)CC[C@@H]12.[Na+] [DHEA-S, sodium dehydroepiandrostenone sulfate]
- calculated DHEA-S solution concentration [4]: 10.7 mg/mL
- calculated DHEA-S^− solution concentration [4]: 27.5 mM
- Stability of nebulizer formulation ([5]; 7.5 mg/mL of DHEA-S in 0.12% NaCl, RT): stable for at least one day at RT
- Appearance on storage ([5]; 40° C.): became cloudy after two days of storage
- Appearance on storage ([5]; RT (24-26° C.)): slight precipitate is observed on the third day
- maximal effect, percent inhibition of control histamine secretion ([6]; at 0.1 uM, compound 48/80 stimulated): 69.9%
- solubility under the assay conditions ([6]; at 10^-4 M): highly limited

Structure (SMILES): COc1cc(C(=O)NS(=O)(=O)c2ccccc2C)ccc1Cc1cn(C)c2ccc(NC(=O)OC3CCCC3)cc12 [Zafirlukast, 4(5-cyclopentyloxy-carbonylamino-1-methyl-indol-3ylmethyl)-3methoxy-N-o-tolylsulfonylbenzamide]
- Solubility in acetone [7]: freely soluble
- Solubility in dimethylsulfoxide [7]: freely soluble
- Solubility in methanol [7]: slightly soluble
- Solubility in tetrahydrofuran [7]: freely soluble
- Solubility in water [7]: practically insoluble

Structure (SMILES): C[C@]12CC[C@H](OS(=O)(=O)[O-])CC1=CC[C@@H]1[C@@H]2CC[C@]2(C)C(=O)CC[C@@H]12.[Na+] [Spray-Dried Drug Product]
- mean particle sizes ([8]; two batches of spray dried material, Malvern Mastersizer X, listed as spray-dried product): 5.07±0.70 μm and 6.66±0.91 μm

Structure (SMILES): C[C@]12CC[C@H](OS(=O)(=O)[O-])CC1=CC[C@@H]1[C@@H]2CC[C@]2(C)C(=O)CC[C@@H]12.[Na+] [Anhydrous DHEA-S]
- D (v, 0.5) ([8]; double pass through the jet mill): 3.25 μm
- D (v, 0.5) ([8]; single pass through the jet mill): 3.90 μm
- median particle size or D (v, 0.5) ([8]; unmilled material): 52.56 μm

Structure (SMILES): Nc1nc(=O)c2c([nH]1)NCC(CNc1ccc(C(=O)N[C@@H](CCC(=O)O)C(=O)O)cc1)N2C=O (mixture of isomers) [Folinic Acid, Folinic acid]
- Effect on adenosine levels, administered alone ([9]; all organs studied): increase in adenosine levels
- Effect of coadministration of folinic acid on steroid-mediated adenosine depletion ([9]; with DHEA or methyltestosterone): completely abrogated steroid-mediated adenosine depletion

— patent US20090317476A1, “COMBINATION OF DEHYDROEPIANDROSTERONE OR DEHYDROEPIANDROSTERONE-SULFATE WITH A LEUKOTRIENE RECEPTOR ANTAGONIST FOR TREATMENT OF ASTHMA OR CHRONIC OBSTRUCTIVE PULMONARY DISEASE” (priority 2003, published 2009)
